Results: US20080167272A1, “Thalidomide metabolites and methods of use” (Auckland Uniservices Limited, priority 2005, published 2008)

What was measured:
TNF = experiment: Modulation of TNF production in Colon 38 tumour-bearing mice (serum and tumour, ELISA); assay type: in vivo; settings: 3 h; for effect on DMXAA-induced tumour TNF level: FIG. 3B
Method: Mice with Colon 38 tumours, approximately 5-7 mm in diameter, were divided into groups of 5. One group was untreated. Other groups were treated with DMXAA (25 mg/kg) alone; DMXAA (25 mg/kg)+thalidomide (100 mg/kg), DMXAA (25 mg/kg)+PG (100 mg/kg), DMXAA (25 mg/kg)+PiG (100 mg/kg), DMXAA (25 mg/kg)+CG (100 mg/kg), DMXAA (25 mg/kg)+thalidomide (20 mg/kg), DMXAA (25 mg/kg)+CG (20 mg/kg), and thalidomide, PG, PiG or CG only at 100 and 200 mg/kg. Three hours after treatment, mice were anaesthetized with halothane (NZ Pharmacology Ltd., Christchurch, New Zealand), and blood was collected from the ocular sinus and tumours were excised. Blood was coagulated overnight at 4° C., and then centrifuged for 30 min at 2,000×g and 4° C., and the serum was removed and stored at −80° C. until use. Tumour tissues were weighed and homogenized in 1.5 ml α-minimal essential medium (Gibco, Grand Island, N.Y., USA). The homogenates were centrifuged (2,000×g, 30 min, 4° C.) and supernatant was removed and re-centrifuged (14,000×g, 30 min, 4° C.). The final supernatants were removed and kept at −80° C. until use. TNF levels in serum and supernatants derived from tumour homogenates were assayed for TNF as described in section 4 (below).
TNF was assayed using a commercially available ELISA kit (OpEIA human or murine TNF kit, PharMingen, San Diego, Calif., USA), according to the manufacturer's instructions. Briefly, samples (100 μl/well) in duplicate together with a serial dilution of TNF (31.25-2000 pg/ml) for the standard curve, were added to flat-bottom 96-well plates pre-coated with immobilised monoclonal anti-TNF antibody and incubated at room temperature for 2 h. The wells were then washed, biotinylated polyclonal antibody to TNF was added, followed by peroxidase-labelled streptavidin, and incubated at room temperature for 1 h. The wells were washed again, and the substrate, tetramethylbenzidine and hydrogen peroxide was added and after 10 min the reaction was stopped with 2 N sulphuric acid. The absorbance at 450 nm was determined using a microtitre plate reader.

ECV304 cells = experiment: Inhibition of tube formation of ECV304 cells in Matrigel; assay type: cell-based, human
Method: Each well in a 24-well plate was coated with 300 μl of Matrigel (Becton Dickinson, San Jose, Calif., USA) which was allowed to solidified at 37° C. for 1 h. […] After 15-18 h of incubation at 37° C. at 5% CO2, the culture supernatant was aspirated. The cells were fixed and stained using Diff-Quick staining kit (Dade AG, Dudingen, Switzerland) according to the manufacturer's instructions. After removal of the staining solution the stained cells in each well were photographed along with a measuring ruler placed at the bottom edge of the photographing field (Olympus Camedia C-5050 professional digital camera, Olympus Optical, Tokyo, Japan). The total length of the tubes formed in the photographs was measured and divided by the area of the field (mm/mm^2).

[1] = Stability of CG in PBS at different pH (HPLC); assay type: physicochemical
Method: CG (50 μM) with 60 μM of phenacetin (as an internal standard) at pH 3.5, 6.8, 7.1, 7.4, 7.7 and 8 in 8 mm clear polyethylene starburst conical snap vials (Alltech, Deerfield, Ill., USA), was incubated in the autosampler (Waters Associates, Milford, Mass., USA) at 37° C. Aliquots (50 μl) of the solutions were then automatically loaded at 0, 6, 12, 18 and 24 hours after incubation onto a Waters Breeze chromatograph (Waters Associates, Milford, Mass., USA) which consisted of a Model 717plus autosampler, Model 1525 binary pump and Model 2487 dual wavelength absorbance detector.
Compounds were separated using a previously described (Chung et al, 2004) HPLC assay for thalidomide using a 100×4.6 mm stainless steel Luna 5 μm Phenylhexyl column (Phenomenex, Torrance, Calif., USA) and a mobile phase (Milli Q water:acetonitrile 10:1.3 v/v) that was pumped at a flow rate of 2 ml/min. Thalidomide and phenacetin were detected at ultraviolet wavelengths of 220 and 248 nm, respectively. The retention times of phenacetin and thalidomide and were 13 and 11 min, respectively. Data acquisition and integration was achieved using Breeze™ Software, Milford, Calif., USA. Each HPLC run included standard curves of thalidomide (0.6-100 μM) or CG (0.2-50 μM) with phenacetin (60 μM) as the internal standard in PBS. […] The r^2 of calibration curves of thalidomide was 0.9995, and for CG calibration curves was 0.9999. The intra-assay recovery was 90-110% (n=8) and the CV was 5-9% (n=4), while the inter-assay recovery was 96-104% (n=15) and the CV was 2-4% (n=6).
To construct the calibration curve, the peak-area ratios to the internal standard were plotted against thalidomide concentration and the best-fit straight line was obtained by linear regression analysis. The correlation coefficient of the calibration curves had r^2 values of greater than 0.9995. The thalidomide/phenacetin peak ratio was determined for all samples and the concentration of thalidomide in each sample was determined from the calibration curve.
The ratio of the area of the thalidomide peak or the CG peak to that of the phenacetin peak in the HPLC chromatographs then calculated and the concentration of thalidomide and CG was determined using the calibration curve. The percentage degradation of CG was calculated as: [1-(CG concentration after incubation/starting concentration)]×100.

stability in solution ([1]; low pH): unstable
CG remaining in the solution after 24 h ([1]; pH 3.5, 37° C.): 21.5%
CG transformed into thalidomide ([1]; pH 3.5, 24 h incubation): 42%
thalidomide in CG solutions after incubation ([1]; pH 6.8, 7.1, 7.4, 7.7 or 8): not detected
CG remaining in solution after 24 h ([1]; pH 6.8, 37° C.): 81.75%
CG remaining in solution after 24 h ([1]; pH 7.1, 37° C.): 50.1%
CG remaining in solution after 24 h ([1]; pH 7.4, 37° C.): 46.6%
CG remaining in the solution after 24 h ([1]; pH 7.7, 37° C.): 8.6%
CG remaining in the solution after 24 h ([1]; pH 8, 37° C.): 0%
stability in solution ([1]; pHs between 6.8-7.4): stable
stability compared with thalidomide ([1]; physiological conditions): more stable than thalidomide
CG degraded ([1]; physiological conditions, after 6 h): 1.3-20%
Compound: O=C1CCC(NC(=O)c2ccccc2C(=O)O)C(=O)N1 (stereo not drawn) [CG, 2-{[(2,6-Dioxo-3-piperidinyl)amino]carbonyl}benzoic acid]
effect on DMXAA-induced tumour TNF level (TNF; 20 mg/kg co-administered with DMXAA 25 mg/kg): significantly increased
effect on DMXAA-induced serum TNF level (TNF; 100 mg/kg co-administered with DMXAA 25 mg/kg, FIG. 3A): decreased
effect on DMXAA-induced tumour TNF level (TNF; 100 mg/kg co-administered with DMXAA 25 mg/kg): significantly increased
inhibition of tube formation (ECV304 cells; 250 μg/ml, FIGS. 6 & 7): Near complete inhibition
inhibition at 2 µg/mL (ECV304 cells; Homo sapiens, ECV-304, lowest concentration tested, 2 μg/ml, FIG. 7): 38 to 41%
angiogenesis inhibition in vitro compared with thalidomide (ECV304 cells; human cell system, FIGS. 6 & 7): as active as thalidomide
